These results are taken from patent publication US20210204574A1, “Consumable Product Comprising Malted Wheat” (Lantmannen Functional Foods AB, priority 2018, published 2021).

One assay concerns cholera toxin-induced secretion.
Test: not given
Particulars: rat, in vivo. Also on record: species or system Sprague-Dawley rats.
With `Oc1cc2c(cc1O)CN(C(=S)NCCc1ccc(Cl)cc1)CCC2` [Capsazepine], the AF units is reported as 0.8 ± 0.1 1.3 ± 0.1 AF units; the “Inhibition, %” value is listed as 38 66%; the “antisecretory activity of pure phenols (in words)” value (“antisecretory activity” for short) was “as active as guaiacol”.

Consider `COc1ccc([C@@H]2OC[C@@H]3[C@H]2CO[C@H]3c2ccc(OC)c(OC)c2)cc1OC` [Eudesmine], for which the “Inhibition, %” value is given as 16% and the “antisecretory activity” value was “increased secretion”.

With `COc1cc(/C=C/C(=O)O)ccc1O` [Ferulic acid], the AF units amounted to 1.2 ± 0.2 AF units; the “Inhibition, %” value is on record as 67%; the “antisecretory activity” value is “significant antisecretory activity”.

On to `COc1ccccc1O` [Guaiacol, 2-methoxyphenol], for which the AF units is 0.9 ± 0.3 1.0 ± 0.2 1.5 ± 0.2 AF units; the “Inhibition, %” value is 46 51 76%; the “antisecretory activity” value is “induced antisecretory activity as early as day 1”.

Turning to `O=c1c(O)c(-c2ccc(O)c(O)c2)oc2cc(O)cc(O)c12` [Quercetin], the AF units is 0.8 ± 0.1 AF units; the “Inhibition, %” value came out at 42%; the “antisecretory activity” value was “significant antisecretory activity”.

`Oc1cccc(O)c1` [Resorcinol]: the AF units is reported as 0.6 ± 0.1 AF units; the “Inhibition, %” value is listed as 30%; the “antisecretory activity” value is listed as “much smaller effect”.

For `OCc1ccccc1O[C@@H]1O[C@H](CO)[C@@H](O)[C@H](O)[C@H]1O` [Salicin], the AF units is given as 0.3 ± 0.1 AF units; the “Inhibition, %” value came out at 17%; the “antisecretory activity” value is “much smaller effect”.

Turning to `COc1cc(C(=O)O)ccc1O` [Vanillic acid], the AF units was 1.1 ± 0.1 AF units; the “Inhibition, %” value came out at 57%; the “antisecretory activity” value is “significant antisecretory activity”.

`COc1ccccc1OC` [Veratrole]: the “Inhibition, %” value came out at 21% and the “antisecretory activity” value is on record as “induced secretion”.

The next assay deals with compleasomes (proteasome/complement complexes). The experiment in a line: Compleasome assay in blood (sandwich ELISA, mab against AF / polyclonal against C3c). Particulars: FIG. 10a; 5 μM phenol or leachate in drinking water for 14 days; reversed titre. It is filed as in vivo, Sprague-Dawley rats. The method, then:
In another set of experiments, the rats were given water extracts of the cereals or purified phenols in their drinking water. The malted Kosack wheat was milled to flour, of which 200 g was put in a glass flask and 800 ml boiling water was successively mixed with the flour. After 3 hours of slow cooling to room temperature, the soak-water was filtered through a nylon filter and centrifuged for 30 min at 12000×g. The supernatant was frozen in 50 ml portions and diluted 1:6 with water each day during the experiment. Freeze-dried purified fractions of wheat extracts were dissolved in the drinking water. […] The drinks or the water control were given in excess over 1-14 days before testing of antisecretory activity.
Rats were given leachate from malted wheat or pure phenols in the drinking water as described above. After 14 days, blood samples were drawn as described elsewhere (Bjorck et al., 2000 and Lönnroth et al., 2016) and the antisecretory activity in blood was estimated by performing a sandwich enzyme-linked immunosorbent assay (ELISA) for detection of compleasomes (proteasome/complement complexes) in blood plasma as described elsewhere (Lonnroth et al., 2016). A monoclonal antibody (mab) against antisecretory factor was used as catching antibody and a polyclonal antibody against complement factor 3c as detecting antibody. The titre was determined after development by a secondary antibody coupled to alkaline phosphatas.
In the case of `COc1cc(/C=C/C(=O)O)ccc1O` [Ferulic acid], the “proteasome/C3 complex (AF activity in blood) compared to controls” value is on record as “significantly higher”.

For the compound `COc1ccccc1O` [Guaiacol, 2-methoxyphenol], the “proteasome/C3 complex (AF activity in blood) compared to controls” value was “significantly higher”.

Still in this assay, the particulars now being: FIG. 10b; in drinking water for 14 days, 5 animals/group.
For `COc1cc(/C=C/C(=O)O)cc(OC)c1O` [sinapic acid], the “compleasome concentration (AF activity in blood)” value is given as “significant increase”.

Regarding catechin, the “compleasome concentration (AF activity in blood)” value is “significant increase”.
